PMC6197744, “Triazolo[4,5-d]pyrimidines as Validated General Control Nonderepressible 2 (GCN2) Protein Kinase Inhibitors Reduce Growth of Leukemia Cells” (Computational and Structural Biotechnology Journal, 2018)

How the values were obtained:
MALME-3M = experiment: NCI-60 one-dose screen; type: cell-based, human; conditions: 48 h; for inhibition at 10 µM: Homo sapiens, Melanoma MALME-3M, read-out: Percent growth inhibition; for increase in cell growth: melanoma cell line MALME-3 M, 10 μM
Procedure: Compounds 1 and 2 were submitted to the National Cancer Institute NCI-60 Tumor Cell Screening Program (NCI number 800,700 and 800,701, respectively) for evaluation against the 60 cell line NCI panel at a single dose of 10 μM. […] Leukemia and breast cancer cell lines comprised the only cancer groups that were uniformly sensitive to both 1 and 2, with the greatest sensitivity seen in the leukemia SR cell line.
Compounds 1 and 2 were submitted to the NCI for growth inhibition screening against its panel of 60 cancer cell lines. The NCI screening protocol has extensively been described [[53], [54], [55], [56]]. Briefly, cancerous cell lines were grown in RPMI 1640 medium containing 5% fetal bovine serum and 2 mM L-glutamine. Depending on the doubling time of each cell line, 5000–40,000 cells were seeded in 96-well plates for 24 h. Cells were then treated with compounds 1 or 2 at a concentration of 10 μM and incubated for 48 h at 37 °C in a humidified atmosphere containing 5% CO2. The cells were then fixed and stained with sulforhodamine B (SRB) to determine their viability. The data were analyzed using a program called COMPARE to determine the percent growth inhibition of each compound.

[1] = tested on: phosphorylation of eIF2α (p-eIF2α); experiment: p-eIF2α reduction in amino acid deprived HEK293T cells (Western blot); type: cell-based; conditions: Homo sapiens, HEK-293T, amino acid deprived 4 h
Procedure: Compounds 1–9 were screened in a radiometric […] kinase assay against human GCN2 and other kinases involved in the UPR and ISR pathways (Table 1). […] The most soluble of the potent tool compounds (1 and 2) were selected for in vitro cell-based assays where the phosphorylation of eIF2α (p-eIF2α) was used as a readout for GCN2 inhibition.
HEK293T cells were purchased from the American Type Culture Collection and were cultured in Dulbecco's modified Eagle's medium (DMEM; GIBCO-11995) supplemented with 10% fetal bovine serum (FBS) (Corning™ 35015CV) and antibiotics (penicillin, 10,000 UI/ml and streptomycin, 10,000 UI/ml) (Life Technologies, 15,140,122). When indicated, cells were deprived of amino acids for 4 h with DMEM (DMEM; GIBCO-21013024) containing no glutamine, no methionine, no cysteine, and no FBS. Upon starvation, cells were treated with DMSO or compound. All cell lines were maintained in humidified incubators at 37 °C under 5% CO2.
Cells were lysed for 10 min on ice with RIPA lysis buffer (50 mM Tris (pH 8), 150 mM NaCl, 1% NP-40, 0.5% sodium deoxycholate, 0.1% SDS, containing Protease Inhibitor Cocktail (PIC) (ROCHE, 11836170001), 100 mM NaF, 2 mM NaVO4, 1 mM Na B-glycerophosphate). […] IC50s were calculated using dose response – Inhibition nonlinear regression algorithm [[inhibitor] vs. response] in GraphPad Prism 7 (GraphPad Software).

HL-60(TB) = experiment: NCI-60 one-dose screen; type: cell-based; conditions: Homo sapiens, HL-60, 48 h, read-out: Percent growth inhibition
PERK = biological target: T1, PERK (Homo sapiens, UniProt Q9NZJ5); experiment: radiometric HotSpot kinase assay; type: biochemical; conditions: 10 μM compound, 10 μM ATP; read-out: % Enzyme inhibition at 10 μM, PERK
T1 construct: purchased Reaction Biology Corporation (Malvern, PA)
T1 sequence (Q9NZJ5 30-1116): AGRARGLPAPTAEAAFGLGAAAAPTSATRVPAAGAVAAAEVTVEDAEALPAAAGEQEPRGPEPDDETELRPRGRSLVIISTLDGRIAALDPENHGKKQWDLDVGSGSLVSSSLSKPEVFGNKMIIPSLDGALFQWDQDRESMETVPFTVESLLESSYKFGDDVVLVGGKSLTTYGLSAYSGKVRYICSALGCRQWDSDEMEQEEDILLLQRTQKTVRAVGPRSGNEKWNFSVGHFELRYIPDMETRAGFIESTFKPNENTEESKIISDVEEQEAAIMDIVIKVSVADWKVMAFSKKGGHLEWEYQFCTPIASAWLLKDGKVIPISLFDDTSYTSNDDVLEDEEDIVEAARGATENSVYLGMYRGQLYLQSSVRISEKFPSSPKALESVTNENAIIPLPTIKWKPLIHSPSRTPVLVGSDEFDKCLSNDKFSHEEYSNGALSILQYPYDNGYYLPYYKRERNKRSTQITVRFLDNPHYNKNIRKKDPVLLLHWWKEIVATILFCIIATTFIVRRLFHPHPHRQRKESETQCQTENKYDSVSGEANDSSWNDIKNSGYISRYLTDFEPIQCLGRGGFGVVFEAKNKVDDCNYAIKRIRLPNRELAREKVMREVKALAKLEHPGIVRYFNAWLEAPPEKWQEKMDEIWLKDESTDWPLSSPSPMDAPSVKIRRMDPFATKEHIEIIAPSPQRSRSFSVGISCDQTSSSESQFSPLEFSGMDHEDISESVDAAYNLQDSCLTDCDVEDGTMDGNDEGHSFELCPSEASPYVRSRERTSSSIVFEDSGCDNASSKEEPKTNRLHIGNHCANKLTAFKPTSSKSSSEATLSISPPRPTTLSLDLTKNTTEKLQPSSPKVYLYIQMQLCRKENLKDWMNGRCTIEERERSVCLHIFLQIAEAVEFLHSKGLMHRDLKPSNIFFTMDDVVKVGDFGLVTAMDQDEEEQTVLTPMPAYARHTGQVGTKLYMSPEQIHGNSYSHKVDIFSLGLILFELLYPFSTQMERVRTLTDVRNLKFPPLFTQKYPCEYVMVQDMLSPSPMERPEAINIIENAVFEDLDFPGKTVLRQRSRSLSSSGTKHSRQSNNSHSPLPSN
Procedure: In vitro compound profiling for recombinant GCN2, PERK, HRI, PKR, or IRE1 kinases were performed at Reaction Biology Corporation (Malvern, PA) using the HotSpot kinase assay. Briefly, all compounds provided for testing were dissolved in 10 mM DMSO stock solutions. […] Specific kinase/substrate mixtures and required cofactors were prepared in reaction buffer (20 mM Hepes (pH 7.5), 10 mM MgCl2, 1 mM EGTA, 0.02% Brij35, 0.02 mg/ml BSA, 0.1 mM Na3VO4, 2 mM DTT, 1% DMSO). Compounds were added to the kinase reaction mixture by Acoustic technology (Echo550; nanoliter range) and incubated for 20 min at room temperature. […] The reaction was incubated or 2 h at room temperature and kinase activity was detected by filter-binding method. IC50 values and curves were generated with GraphPad Prism 7 (GraphPad software).

Row | SMILES | inhibition at 10 µM (MALME-3M) | increase in cell growth (MALME-3M) | IC50 [1] | inhibition at 10 µM (HL-60(TB)) | inhibition at 10 µM (PERK)
1 | CCn1cc(Nc2ncc3nnn(-c4ccc(C(=O)OC)cc4)c3n2)cn1 [Compound 1, Methyl 4-(5-((1-ethyl-1H-pyrazol-4-yl)amino)-3H-[1,2,3]triazolo[4,5-d]pyrimidin-3-yl)benzoate] | -27.7% | 27.7% | 52.6 nM | 8.55% | 24%
2 | CCOc1ccc(-n2nnc3cnc(Nc4cnn(CC)c4)nc32)cc1 [Compound 2, 3-(4-Ethoxyphenyl)-N-(1-ethyl-1H-pyrazol-4-yl)-3H-[1,2,3]triazolo[4,5-d]pyrimidin-5-amine] | -37.2% | 37.2% | 138 nM | 24.6% | < 10%
